Data: US20220110985A1, “NUTRITIONAL COMPOSITION COMPRISING 2'FUCOSYLLACTOSE AND 3'GALACTOSYLLACTOSE” (N.V. Nutricia, priority 2019, published 2022)

How the values were obtained:
Caco-2 cell monolayer = assay: DON-induced impairment of Caco-2 cell monolayer integrity (TEER, lucifer yellow flux); type: cell-based, human; settings: for effect on DON-induced loss of epithelial barrier integrity (TEER, LY flux), in words: 24 h pretreatment (GLs 0.75 wt. %; 2′-FL 1 mg/ml), then DON 4.2 μM 24 h
Method: Beta1,3′-galactosyl-lactose (beta3′-GL), beta1,4′-galactosyllactose (beta4′-GL) and beta1,6′-galactosyl-lactose (beta6′-GL) were obtained from Carbosynth (Berkshire, UK). Alpha1,3′-galactosyl-lactose (alpha3′-GL) was obtained from Elicityl (Crolles, France). Purified deoxydivalenol (DON) (D0156; Sigma Aldrich, St Luis, Mo., USA) was dissolved in pure ethanol and stored at −20° C. Human epithelial colorectal adenocarcinoma (Caco-2) cells were obtained from American […] (Code HTB-37) (Manasse, Va., USA, passage 90-102).
Caco-2 cells were used according to established methods. In brief: cells were cultured in Dulbecco's modified Eagle medium (DMEM) and seeded at a density of 0.3×10^5 cells into 0.3 cm^2 high pore density (0.4 μm) inserts with a polyethylene terephthalate membrane (BD Biosciences, Franklin Lakes, N.J., USA) placed in a 24-well plate. The Caco-2 cells were maintained in a humidified atmosphere of 95 air and 5% CO2 at 37° C.
Caco-2 cell monolayers were thus grown in a transwell system, which is a model for intestinal barrier function. The monolayers were pretreated for 24 h with different GLs, including beta3′-GL, alpha3′-GL, beta4′-GL and beta6′-GL in a concentration of 0.75 wt. % of the GL, before being exposed to the fungal toxin deoxynivalenol (DON), which is a trigger and model compound to impair intestinal barrier. DON was diluted to a final concentration of 4.2 μM in complete cell medium and added to the apical side as well as to the basolateral side of the transwell inserts. […] Incubation with DON was 24 h.
Measurements of the transepithelial electrical resistance (TEER) and lucifer yellow (LY) permeability were conducted to investigate barrier integrity. For TEER measurements a Millicel-ERS voltohmmeter connected to a pair of chopsticks electrodes was used to measure the TEER values. Results are expressed as a percentage of the initial value. For paracellular tracer flux assay the membrane impermeable lucifer yellow (LY) (Sigma, St Luis, Mo., USA) was added in a concentration of 16 μg/ml to the apical compartment in the transwell plate for 4 h, and the paracellular flux was determined by measuring the fluorescence intensity in the basolateral compartment with a spectrophotofluorimeter (FLUOstar Optima, BMG Labtech, Offenburg, Germany) set at excitation and emission wavelengths of 410 and 520 nm, respectively. Release of interleukin-8 (IL-8 or CXCL8), which is a typical marker for inflammation, was quantified in the medium of the apical side and the basolateral side of the Caco-2 transwell inserts in response to the treatments. CXCL8 concentrations were measured by using the human IL-8 ELISA assay (BD Biosciences, Pharmingem, San Diego, Calif., USA) according to manufacturer's instructions. For more details on materials and methods see Akbari et al, 2016, Eur J Nutr. 56(5):1919-1930.

fecal slurry microbiota = assay: Anaerobic fermentation of fecal slurry (BioLector Pro): acidification, microbiota composition; type: cell-based, human infant; settings: no pathogen spiking
Method: Anaerobic fermentation of fecal slurry samples was tested in a BioLector Pro microfluidics mini multifermentor. Faecal slurry samples were collected from breast fed infants and from formula fed infants. These faecal slurry samples were processed by adding 0.6 grams feces in 40 ml Baby Reichardt V.6 medium+mucus+Ammonium sulfate+lactate and acetate. The resulting solutions were inserted to the BioLector Pro microfluidics mini multifermentor. The test legs were supplemented with 3-GL, 2′-FL, 3′-GL+2′-FL, and GOS/FOS. The control leg was supplemented with sterile water.
In addition the test legs were supplemented with Clostridium difficile C153 (difficile agar), Salmonella enteriditis S29 (XLD agar), Cronobacter sakasakii E71 (chromogenic agar) or Klebsiella pneumonia K2 (Simons citrate inositol agar). For every NDO and for the control also a pathogen free culture was prepared.
After fermentation the fermented solutions were tested for SCFA content (in particular acetic acid, propionic acid, butyric acid and isobutyric acid), ammonia content, lactate content and pathogen concentration. Also DNA-isolation+identification and 16s sequencing was performed to determine the composition of the microbiota.
A 32 well plate that can handle low pH was used. The wells of this plate were filled with fecal solution. […]

human PBMC, unstimulated = assay: Cytokine production of unstimulated PBMC (IL10, CCL20); type: cell-based; settings: for CCL20 level as compared to blanc control, in words: unstimulated PBMC; for Relative CCL 20 mean (s.e.): 0.1 w/v % 3′-GL
Text: Isolation of PBMC from healthy donors: Human peripheral blood mononuclear cells (PBMC) from healthy donors were isolated from buffy coats (Sanquin, Amsterdam, the Netherlands). PBMC were obtained by centrifugation using Leucosep tubes (Greiner Bio-One). […] After lysis, the PBMC were resuspended in freezing medium (70% RPMI 1640 medium (Gibco, Thermo Fisher Technologies) supplemented with 10% heat-inactivated FCS and 100 U/ml penicillin-streptomycin, 20% heat-inactivated FCS and 10% DMSO (Sigma)) and cryopreserved. PBMC activation model: PBMC (0.2·10^6 cell/well) were cultured in 96-well flat bottom plates (Corning). For 24 hours the cells were pre-incubated with 2'-FL (Jennewein), 3'-GL (0-0.3% w/v; […] Sigma Aldrich) and combinations thereof. Subsequently, the cells were CD3/CD28-activated (Pelicluster CD3 and Pelicluster CD28, Sanquin) for an additional 24 hours. After incubation, IFNγ was measured by ELISA in the supernatants (see below). […] Roche) and/or 10% Triton (5 μl; negative control). […] Cytokine production of PBMC: PBMC were incubated with indicated reagents. After incubation, the supernatants were collected and IL2, IL6, IL10, IL13, IL21, TNFα, IFNγ, MIF, CCL1, CCL13, CCL17, CCL20, CCL22 and CXCL8-11 levels were measured by conducting a validated multiplex immunoassay based on Luminex technology (xMAP, Luminex Austin Tex. USA). Acquisition was conducted with the Biorad […] (Biorad laboratories, Hercules USA) in combination with xPONENT software version 4.2 (Luminex). Data was analyzed by 5-parametric curve fitting using Bio-Plex Manager software, version 6.1.1 (Biorad). After PBMC stimulation, cell culture supernatants were collected, after which cytokine responses were measured in order to test immune responsiveness of the cells. The levels of cytokines measured in stimulated conditions were corrected for the (low) levels of the cytokines measured in non-stimulated conditions. In addition, since each donor is reacting in its own efficiency onto the T cell stimulus, we calculated the individual index of cytokine response by dividing the intervention induced response by the basal stimulated response.

[1] = unstimulated, 0.2% w/v 2′-FL, 0.2 mM butyrate, blanc = 1, observed
[2] = Caco-2 monolayer, DON 4.2 μM, 2′-FL 1 mg/ml

Compound	effect on DON-induced loss of epithelial barrier integrity (TEER, LY flux), in words (Caco-2 cell monolayer)	rate of initial acidification (fecal slurry microbiota)	CCL20 level as compared to blanc control, in words (human PBMC, unstimulated)	Relative CCL 20 mean (s.e.) (human PBMC, unstimulated; [1])	Lucifer yellow flux (Caco-2 cell monolayer; [2])	TEER (% of initial value) Mean (s.e.) (Caco-2 cell monolayer; [2])	extent of fermentation as measured by NaOH consumption, i.e. acid production (fecal slurry microbiota; both inocula)	IL10 level as compared to blanc control, in words (human PBMC, unstimulated; 0.2% 2′-FL, 0.2 mM butyrate)	Relative IL10 level, mean (se) (human PBMC, unstimulated; [1])
Gal (beta 1-3)-Gal (beta 1-4)-Glc [3′-GL]	prevented the DON-induced loss of epithelial barrier integrity	high	did not have a statistically significant effect	1.164 (0.212)					
C[C@@H]1O[C@@H](O[C@H]2[C@H](O[C@H]3[C@H](O)[C@@H](O)C(O)O[C@@H]3CO)O[C@H](CO)[C@H](O)[C@@H]2O)[C@@H](O)[C@H](O)[C@@H]1O (stereo partly drawn) [2′-FL, α-L-Fuc-(1→2)-β-D-Gal-(1→4)-D-Glc]	statistically significantly prevent the DON induced reduction in TEER and increase in LYF		increased level	2.586 (0.281)	446.4 (8.302)^∧ ng/ml (cm^2xh)	42.79 (0.844)^∧∧ % of initial value	slower and lower acidification	significantly (p<0.05) increased level	3.361 (1.867)
